Experiments:
[1] = Solubility of compounds of formula (Ia) in various media; assay type: physicochemical
[2] = tested on: hypoxia inducible factor (HIF) prolyl hydroxylase; assay: Inhibition of hypoxia inducible factor (HIF) prolyl hydroxylase (statement only); assay type: biochemical

solubility ([1]; in 0.1 N HCL): insoluble
solubility ([1]; in N,N-dimethyl formamide): freely soluble
solubility ([1]; in alkaline aqueous condition): soluble
solubility ([1]; in water): partially soluble
inhibitor of HIF prolyl hydroxylase [2]: potent inhibitor
Structure (SMILES): O=C(O)CNC(=O)c1c(O)c2ccccc2n(OCC2CC2)c1=O [Compound (Ia)]
